Experimental data from ChEMBL document CHEMBL1201862, “PubChem BioAssay data set” (2004).
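Protocol summary: plate cells (96-well), add compound at 5 concentrations, incubate 48 h, interpolate endpoints linearly. The concentration for 50% growth inhibition is given as GI50.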 Activity calls are given as the source filed them. Cut-off read from the data, not from the text of the source: active = GI50 up to about 1.1 µM and inactive = higher.

Assays:
Assay in all cases: NCI tumour cell line growth inhibition, 48 h
DLD-1 = test system: DLD-1
DMS-114 = test system: DMS-114
DMS-273 = test system: DMS-273
HOP-18 = test system: HOP-18
KM-20L2 = test system: KM-20L2
LXFL 529 = test system: LXFL 529
RXF 631 = test system: RXF 631
SNB-78 = test system: SNB-78
XF498 = test system: XF498

Compound | GI50 (DLD-1) | GI50 (DMS-114) | GI50 (DMS-273) | GI50 (HOP-18) | GI50 (KM-20L2) | GI50 (LXFL 529) | GI50 (RXF 631) | GI50 (SNB-78) | GI50 (XF498)
O=C1c2ccccc2C2(O)Oc3cccc(O)c3C12O (stereo not given) | > 100 µM (inactive) | > 100 µM (inactive) | > 100 µM (inactive) | > 100 µM (inactive) | > 100 µM (inactive) | > 100 µM (inactive) | > 100 µM (inactive) | > 100 µM (inactive) | 
COc1ccccc1NC(=O)C(=O)C(c1cnc2ccc([N+](=O)[O-])cc2n1)[N+](=O)[O-] (stereo not given) | > 100 µM (inactive) | 17.9 µM (inactive) | 64 µM (inactive) | > 100 µM (inactive) | > 100 µM (inactive) | 75 µM (inactive) | 39.2 µM (inactive) | > 100 µM (inactive) | > 100 µM (inactive)
O=C(Nc1cc(Cl)c(Cl)cc1Cl)C(=O)C(C(=O)c1ccc2ccccc2c1)C1OC(=O)c2ccccc21 (stereo not given) | 14.4 µM (inactive) | 9.2 µM (inactive) |  |  |  | 10.6 µM (inactive) |  | 8.43 µM (inactive) | 
Cc1ccccc1Nc1nc2c(s1)C(=O)c1ccccc1C2=O | 5.73 µM (inactive) | 2 µM (inactive) | 8.07 µM (inactive) | 12.4 µM (inactive) | 28.6 µM (inactive) | 4.61 µM (inactive) |  | 12.8 µM (inactive) | 15.6 µM (inactive)
N=C(N)NS(=O)(=O)c1ccc(Nc2c3ccccc3nc3c(C(=O)N4CCN(CCO)CC4)cccc23)cc1 | > 100 µM (inactive) | > 100 µM (inactive) | > 100 µM (inactive) | > 100 µM (inactive) | > 100 µM (inactive) | > 100 µM (inactive) |  | > 100 µM (inactive) | > 100 µM (inactive)
CCCCNC(=O)C1C2CCC(O2)C1C(=O)O (stereo not given) | 20.2 µM (inactive) | 13.9 µM (inactive) | 32.4 µM (inactive) | 30.4 µM (inactive) | 6.24 µM (inactive) | 16 µM (inactive) | 32.5 µM (inactive) | 32.9 µM (inactive) | 3.41 µM (inactive)
COc1ccc2oc(C(=O)O)c3c2c1CCC3CCC(=O)O (stereo not given) | > 100 µM (inactive) | > 100 µM (inactive) | > 100 µM (inactive) |  |  | > 100 µM (inactive) | > 100 µM (inactive) | > 100 µM (inactive) | > 100 µM (inactive)
COc1ccccc1NC(=O)c1nc2ccc([N+](=O)[O-])cc2nc1C | > 100 µM (inactive) | > 100 µM (inactive) | > 100 µM (inactive) | 0.238 µM (active) | > 100 µM (inactive) | > 100 µM (inactive) |  |  | 21 µM (inactive)
Cc1cc2nc3ccc(N(C)C)cc3[s+]c2cc1N [TOLONIUM CHLORIDE] | 6.38 µM (inactive) | 0.867 µM (active) | 2.67 µM (inactive) | 10.3 µM (inactive) | 14.5 µM (inactive) | 0.769 µM (active) |  | 12.6 µM (inactive) | 
O=C(Cc1ccccc1)Oc1ccc2c(-c3ccccc3)c(C(=O)Nc3ccc(Cl)cc3)c(=O)oc2c1 | > 100 µM (inactive) | > 100 µM (inactive) | > 100 µM (inactive) |  | > 100 µM (inactive) | > 100 µM (inactive) |  | > 100 µM (inactive) | > 100 µM (inactive)
O=C1Nc2ccc(Br)cc2/C1=N/Nc1ccc([N+](=O)[O-])cc1 | 31.5 µM (inactive) | 18.5 µM (inactive) | 9.95 µM (inactive) | 17.7 µM (inactive) | 72.1 µM (inactive) | 22.8 µM (inactive) | 17.3 µM (inactive) | 18.9 µM (inactive) | 23.7 µM (inactive)
COc1ccc2nc3cc(Cl)ccc3c(NCCC(=O)OCC(O)C(O)C(O[C@H](C)C(=O)NC(C)C(=O)NC(CCC(N)=O)C(=O)OCc3ccccc3)C(C=O)NC(C)=O)c2c1 (stereo not given in full) | 17.4 µM (inactive) |  | 14.2 µM (inactive) |  | 17.2 µM (inactive) | 17.3 µM (inactive) | 19.6 µM (inactive) | 32.5 µM (inactive) | 18.5 µM (inactive)
O=C(Cc1ccccc1)C(c1ccccc1)S(=O)(=O)c1ccccc1 (stereo not given) | > 100 µM (inactive) | 48.6 µM (inactive) | > 100 µM (inactive) | 85.5 µM (inactive) | > 100 µM (inactive) | 87.1 µM (inactive) | > 100 µM (inactive) | 97.7 µM (inactive) | > 100 µM (inactive)
CSc1nc2c(nc(N)n2C2OCC(O)C(O)C2O)c(=O)n1C (stereo not given) | > 100 µM (inactive) | > 100 µM (inactive) |  | > 100 µM (inactive) | > 100 µM (inactive) | > 100 µM (inactive) | > 100 µM (inactive) | > 100 µM (inactive) | > 100 µM (inactive)
CCOC(=O)C1Nc2ccccc2[C@H]2OCC[C@@H]12 (stereo not given in full) | > 100 µM (inactive) |  | > 100 µM (inactive) | > 100 µM (inactive) | > 100 µM (inactive) |  |  | > 100 µM (inactive) | > 100 µM (inactive)
CCCCCCCCCCC/C(=N/O)c1ccc(O)c2ncccc12 | 2.75 µM (inactive) | 2 µM (inactive) | 1.51 µM (inactive) | 3.36 µM (inactive) | 3.85 µM (inactive) | 2.23 µM (inactive) |  | 4.55 µM (inactive) | 
O=C1CNNC(Cn2nc(-c3ccccc3)c3ccccc3c2=O)=N1 | > 100 µM (inactive) | > 100 µM (inactive) | > 100 µM (inactive) | > 100 µM (inactive) |  | > 100 µM (inactive) |  | > 100 µM (inactive) | 
Cc1ccc(S(=O)(=O)c2c(N)c3nccn3c3nc4ccccc4nc23)cc1 | > 100 µM (inactive) | > 100 µM (inactive) | 81.1 µM (inactive) |  | > 100 µM (inactive) | > 100 µM (inactive) |  | 53.5 µM (inactive) | 41.8 µM (inactive)
COc1ccc2nc(C)cc(NCCCCCCCCCNc3cc(C)nc4ccc(OC)cc34)c2c1 | 2.31 µM (inactive) | 1.15 µM (inactive) | 0.931 µM (active) |  | 0.946 µM (active) | 1.17 µM (inactive) |  | 1.8 µM (inactive) | 2.21 µM (inactive)
COc1ccc(NC(=O)CC(=O)N/N=C/c2ccc(N(CCC#N)S(=O)(=O)c3ccccc3)cc2)cc1 | > 100 µM (inactive) | > 100 µM (inactive) |  | > 100 µM (inactive) | > 100 µM (inactive) | > 100 µM (inactive) | > 100 µM (inactive) | > 100 µM (inactive) | > 100 µM (inactive)
OC1C2C=CCC1CCC2 (stereo not given) | > 100 µM (inactive) | > 100 µM (inactive) | > 100 µM (inactive) | > 100 µM (inactive) | > 100 µM (inactive) |  | > 100 µM (inactive) | > 100 µM (inactive) | > 100 µM (inactive)
CCOC(=O)NN1C(=O)C(=P(c2ccccc2)(c2ccccc2)c2ccccc2)C(C(=O)OCC)=C1C | > 100 µM (inactive) |  | > 100 µM (inactive) |  | > 100 µM (inactive) | > 100 µM (inactive) | > 100 µM (inactive) | > 100 µM (inactive) | > 100 µM (inactive)
Fc1cccc(C2SCc3nc4ccccc4n32)c1F (stereo not given) | > 100 µM (inactive) | 23.8 µM (inactive) | 19.4 µM (inactive) | 56.1 µM (inactive) | > 100 µM (inactive) | 40.9 µM (inactive) | 16.4 µM (inactive) | 32.6 µM (inactive) | 
Cc1cccc(C(C)C)c1NC(=O)CC1C(=O)Nc2ccccc2S1(=O)=O (stereo not given) | 9.25 µM (inactive) | 13 µM (inactive) | 6.03 µM (inactive) | 26.4 µM (inactive) | 18.1 µM (inactive) | 16.7 µM (inactive) | 13.4 µM (inactive) | 17.7 µM (inactive) | 27.6 µM (inactive)
COC(=O)CC(C(C(=O)OCc1ccccc1)C(C)O)N1C(=O)OC(c2ccccc2)C1c1ccccc1 (stereo not given) | > 100 µM (inactive) | 81.5 µM (inactive) | > 100 µM (inactive) |  | > 100 µM (inactive) | > 100 µM (inactive) | > 100 µM (inactive) |  | 24.9 µM (inactive)
COC(=O)CC(=O)C[P+](c1ccccc1)(c1ccccc1)c1ccccc1 | 194 µM (inactive) | > 218 µM (inactive) | > 218 µM (inactive) | 39.8 µM (inactive) | > 218 µM (inactive) | 89.9 µM (inactive) | > 218 µM (inactive) |  | 45.4 µM (inactive)
